Reference: PMC12621189, “Optimization of Selective and CNS Penetrant Alkyne-Based TREK Inhibitors: The Discovery and Characterization of ONO-9517601 (VU6022856) and ONO-7927846 (VU6024391)” (Journal of Medicinal Chemistry, 2025)
Several values for one entry are separate records, joined by “and”; a condition that tells them apart may be missing. Equal entries are not always repeated.

How the values were obtained:
human TREK-1 (hTREK-1) = biological target: T1, human TREK-1 (hTREK-1) (Homo sapiens, UniProt O95069); assay: TREK-1 thallium flux assay (CHO-K1 cells stably expressing hTREK-1); format: cell-based; details: human TREK-1, thallium flux; read-out: h TREK-1 Tl+ IC50
T1 construct: expressed in transfected cells
T1 sequence (O95069 1-426): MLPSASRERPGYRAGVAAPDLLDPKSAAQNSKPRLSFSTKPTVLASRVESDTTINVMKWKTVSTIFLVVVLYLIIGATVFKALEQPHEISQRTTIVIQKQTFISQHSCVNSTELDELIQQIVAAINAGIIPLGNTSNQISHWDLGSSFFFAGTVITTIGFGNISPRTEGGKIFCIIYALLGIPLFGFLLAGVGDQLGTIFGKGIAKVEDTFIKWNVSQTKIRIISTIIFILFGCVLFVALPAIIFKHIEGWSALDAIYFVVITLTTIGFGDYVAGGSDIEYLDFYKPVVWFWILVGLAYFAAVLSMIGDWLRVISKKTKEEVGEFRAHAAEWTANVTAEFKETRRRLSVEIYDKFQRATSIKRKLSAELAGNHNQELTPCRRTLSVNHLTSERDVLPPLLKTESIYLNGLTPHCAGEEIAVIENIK
Outline: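 Cells loaded with FluxOR dye were preincubated 10 min with test compound in 0.3% DMSO, then given thallium stimulus buffer. ΔRatio was fluorescence 25 s after thallium over pre-thallium baseline; % inhibition was normalised between vehicle and 10 μM reference blocker, and IC50 was fitted from concentration–response.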

mouse TREK-1 (mTREK-1) = biological target: T2, mouse TREK-1 (mTREK-1) (Mus musculus, UniProt P97438); assay: mTREK-1 manual patch clamp assay; format: cell-based; details: mouse TREK-1, manual patch clamp; read-out: TREK-1 IC50 (mouse, MPC)
T2 construct: expressed in transfected cells; host or cells: CHO-K1 (transient)
T2 sequence (P97438 1-426): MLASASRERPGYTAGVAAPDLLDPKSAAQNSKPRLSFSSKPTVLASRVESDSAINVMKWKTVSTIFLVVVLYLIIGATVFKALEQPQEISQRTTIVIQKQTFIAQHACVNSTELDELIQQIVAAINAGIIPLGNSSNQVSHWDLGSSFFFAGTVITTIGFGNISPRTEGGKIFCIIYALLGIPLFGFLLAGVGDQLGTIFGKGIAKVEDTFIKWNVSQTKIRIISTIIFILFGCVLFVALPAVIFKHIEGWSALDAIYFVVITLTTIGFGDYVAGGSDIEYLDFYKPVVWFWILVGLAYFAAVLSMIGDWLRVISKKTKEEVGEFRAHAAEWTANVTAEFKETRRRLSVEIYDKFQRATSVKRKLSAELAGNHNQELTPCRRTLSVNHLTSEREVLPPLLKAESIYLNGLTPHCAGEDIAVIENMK
Procedure: hTREK-1 and mTREK-1 patch clamp assay
CHO-K1 cells stably expressing hTREK-1 or CHO-K1 cells transiently expressing mouse TREK-1 (mTREK-1) were plated on glass coverslips, and voltage clamped in the whole-cell configuration of the patch clamp technique. Cells were voltage clamped at a holding potential of - 80 mV and the stepped to 0 mV for 500 msec. The voltage was subsequently ramped from -120mV to +80 mV over a 500 msec duration. This step-ramp protocol was repeated every 10 sec. The bathing solution contained the following: 135 mM NaCl, 5 mM KCl, 2 mM CaCl2, 1 mM MgCl2, 5 mM D-Glucose, 10 mM HEPES, 10 mM sucrose (adjusted to pH 7.4 with NaOH, 300 mosmol/kg H2O). The pipette solution contained the following: 135 mM KCl, 2 mM MgCl2, 1 mM EGTA, 10 mM HEPES, 2 mM Na2ATP (adjusted to pH 7.35 with KOH, 285 mosmol/kg H2O). Test […]
compounds were dissolved into the bathing solution. The effects of test compound on the currents were calculated at 0 mV using the following equations:
% inhibition = (1-post current/pre current) x 100
% inhibition vs compound concentrations were plotted in GraphPad Prism and calculated IC50. […]

ChromatoLogD = format: physicochemical
[1] = Liver microsome intrinsic clearance, human; format: in vitro ADME; details: for CLint scaled at 1 µM: pH 7.4, human liver microsomes, predicted intrinsic clearance, read-out: LMS CLINT human; for Predicted CLhep human: from microsomal CLint
Outline: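 Incubation in 100 mM potassium phosphate pH 7.4 with 3 mM MgCl2 at 37 °C, started with 1 mM NADPH after 5 min preincubation; sampled 0–45 min, quenched in acetonitrile, LC/MS/MS. Half-life from ln % remaining vs time; CLint scaled with 20 (human) or 45 (rat) factors, CLhep using Qh 21 (human) or 70 (rat) mL/min/kg.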

[2] = Liver microsome intrinsic clearance, rat; format: in vitro ADME; details: for CLint scaled at 1 µM: pH 7.4, rat liver microsomes, predicted intrinsic clearance, read-out: LMS CLINT rat; for Predicted CLhep rat: from microsomal CLint
Procedure: were incubated in 100 mM potassium phosphate pH 7.4 buffer with 3 mM MgCl2 at 37 °C with constant shaking. After a 5 min preincubation, the reaction was initiated by the addition of NADPH (1 mM). At selected time intervals (0, 3, 7, 15, 25, and 45 min), aliquots were taken and subsequently placed into a 96-well plate containing cold acetonitrile with internal standard (50 ng/mL carbamazepine). Plates were then centrifuged at 3000 rcf (4 °C) for 10 min, and the supernatant was transferred to a separate 96-well plate and diluted 1:1 with water for LC/MS/MS analysis. The in vitro half-life ( 1/2, min, Eq. 1), intrinsic clearance (CLint, mL/min/kg, Eq. 2), and subsequent predicted hepatic clearance (CLhep, mL/min/kg, Eq. 3) was determined employing the […]
where k represents the slope from linear regression analysis of the natural log percent remaining of a test compound as a function of incubation time […]
(2) CLint = in vitroT x mg microsomes x gram liver x kg body wt ascale-up factors: of 20 (human) or 45 (rat) […]
where Qh (hepatic blood flow, mL/min/kg) is 21 (human) or 70 (rat).
LC/MS/MS Bioanalysis of Samples from Plasma Protein Binding and Intrinsic Clearance […]
Samples were analyzed on a Thermo Electron TSQ Quantum Ultra triple quad mass spectrometer (San Jose, CA) via electrospray ionization (ESI) with two Themo Electron Accella pumps (San Jose, CA), and a Leap Technologies CTC PAL autosampler (Carrboro, NC). Analytes were […]

Row | Compound | IC50 (human TREK-1 (hTREK-1)) | IC50 (mouse TREK-1 (mTREK-1)) [nM] | chromatographic logD (ChromatoLogD) | CLint scaled at 1 µM [1] [mL/min/kg] | Predicted CLhep human [1] [mL/min/kg] | CLint scaled at 1 µM [2] [mL/min/kg] | Predicted CLhep rat [2] [mL/min/kg]
1 | Cc1cc(C#Cc2ccccc2)cnc1NC(=O)c1cc(OC[C@@H]2COCCO2)ccc1Cl [Compound 7, (S)-5-((1,4-Dioxan-2-yl)methoxy)-2-chloro-N-(3-methyl-5-(phenylethynyl)pyridin-2-yl)benzamide] | 210 nM | 170 | 4.14 | 57 |  |  | 
2 | CC(=O)N1CCC(n2ncc(Cl)c2C(=O)Nc2ncc(C#Cc3ccccc3)cc2C)CC1 [Compound 10, 1-(1-Acetylpiperidin-4-yl)-4-chloro-N-(3-methyl-5-(phenylethynyl)pyridin-2-yl)-1H-pyrazole-5-carboxamide] | 67 nM and 70 nM | 67 | 3.8 | 6 | 4.9 | 62 | 32.9
3 | CC(=O)N1CC[C@@H](n2ncc(Cl)c2C(=O)Nc2ncc(C#Cc3ccc(F)cc3)cc2C)[C@H](F)C1 [Compound 11, 1-((3R,4R)-1-Acetyl-3-fluoropiperidin-4-yl)-4-chloro-N-(5-((4-fluorophenyl)ethynyl)-3-methylpyridin-2-yl)-1H-pyrazole-5-carboxamide] | 110 nM | 760 | 3.9 | 10 | 7.0 | 40 | 25.4
4 | Cc1cc(C#Cc2ccccc2)cnc1NC(=O)c1c(Cl)cnn1[C@H]1CCOC1 [Compound 15a, (S)-4-Chloro-N-(3-methyl-5-(phenylethynyl)pyridin-2-yl)-1-(tetrahydrofuran-3-yl)-1H-pyrazole-5-carboxamide] | 360 nM |  |  | 4 |  | 49 | 
